Where “and” joins values, the source holds several entries; their conditions need not be identical. Identical values can stand only once. Toxic doses and inconclusive results are not listed.
Test system: P388 leukemia ip, CD2F1 mice, survival T/C
Assay: NCI In Vivo Anticancer Drug Screen. Data for tumor model P388 Leukemia (intraperitoneal) in CD2F1 (CDF1) mice
Details: endpoint: median survival time, higher = longer survival
In short: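 Mice carrying the transplanted tumor received test compound or vehicle. Survival was recorded in each group, and the value is the treated-group measurement divided by that of the vehicle-treated control group.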

[1] = dose: 100.0 mg/kg/injection, schedule: Q04DX003 (ip), vehicle: saline with Tween-80
[2] = dose: 200.0 mg/kg/injection, schedule: Q04DX003 (ip), vehicle: saline with Tween-80
[3] = dose: 50.0 mg/kg/injection, schedule: Q01DX009 (ip), vehicle: saline
[4] = dose: 100.0 mg/kg/injection, schedule: Q01DX009 (ip), vehicle: saline
[5] = dose: 200.0 mg/kg/injection, schedule: Q01DX009 (ip), vehicle: saline
[6] = dose: 50.0 mg/kg/injection, schedule: Q01DX005 (ip), vehicle: Klucel (hydroxypropylcellulose) (HPC)
[7] = dose: 100.0 mg/kg/injection, schedule: Q01DX005 (ip), vehicle: Klucel (hydroxypropylcellulose) (HPC)
[8] = dose: 200.0 mg/kg/injection, schedule: Q01DX005 (ip), vehicle: Klucel (hydroxypropylcellulose) (HPC)
[9] = dose: 50.0 mg/kg/injection, schedule: Q01DX005 (ip), vehicle: saline with Tween-80
[10] = dose: 100.0 mg/kg/injection, schedule: Q01DX005 (ip), vehicle: saline with Tween-80
[11] = dose: 200.0 mg/kg/injection, schedule: Q01DX005 (ip), vehicle: saline with Tween-80

## O=P(N1CCCCCC1)(N1CC1)N1CC1
dose: 0.47 mg/kg/injection, schedule: Q01DX009 (ip), vehicle: saline
  T/C: 102 % of control
dose: 0.94 mg/kg/injection, schedule: Q01DX009 (ip), vehicle: saline
  T/C: 108 % of control
dose: 0.94 mg/kg/injection, schedule: Q04DX003 (ip), vehicle: saline
  T/C: 117 % of control
dose: 1.87 mg/kg/injection, schedule: Q01DX009 (ip), vehicle: saline
  T/C: 118 % of control
dose: 1.88 mg/kg/injection, schedule: Q01DX009 (ip), vehicle: saline
  T/C: 118 % of control
dose: 3.75 mg/kg/injection, schedule: Q04DX003 (ip), vehicle: saline
  T/C: 161 % of control
dose: 7.5 mg/kg/injection, schedule: Q04DX003 (ip), vehicle: saline
  T/C: 227 % of control
dose: 15.0 mg/kg/injection, schedule: Q04DX003 (ip), vehicle: saline
  T/C: 165 % of control
dose: 22.0 mg/kg/injection, schedule: Q04DX003 (ip), vehicle: saline
  T/C: 190 % of control
dose: 30.0 mg/kg/injection, schedule: Q04DX003 (ip), vehicle: saline
  T/C: 200 % of control
dose: 33.0 mg/kg/injection, schedule: Q04DX003 (ip), vehicle: saline
  T/C: 259 % of control

## NC(=S)N/N=C/c1nc2ccccc2[nH]1
dose: 25.0 mg/kg/injection, schedule: Q04DX003 (ip), vehicle: saline with Tween-80
  T/C: 100 % of control
dose: 50.0 mg/kg/injection, schedule: Q04DX003 (ip), vehicle: saline with Tween-80
  T/C: 100 % of control
[1]
  T/C: 106 % of control
[2]
  T/C: 91 % of control

## CC(C)=CCCC(C)CCC1NC(C(=O)O)CS1 (centres undefined)
[3]
  T/C: 94 % of control
[4]
  T/C: 94 % of control
[5]
  T/C: 95 % of control

## N#Cc1c(O)c(-c2ccccc2)c(=O)n2c1[nH]c1ccccc12
[6]
  T/C: 101 % of control
[7]
  T/C: 104 % of control
[8]
  T/C: 113 % of control

## O=c1n(-c2ccccc2)c(=O)n2n1C1C3C4C3C2C2(F)C4C12 (centres undefined)
dose: 3.0 mg/kg/injection, schedule: Q04DX002 (ip), vehicle: Klucel (hydroxypropylcellulose) (HPC)
  T/C: 95 % of control
dose: 6.0 mg/kg/injection, schedule: Q04DX002 (ip), vehicle: Klucel (hydroxypropylcellulose) (HPC)
  T/C: 101 % of control
dose: 12.5 mg/kg/injection, schedule: Q04DX002 (ip), vehicle: Klucel (hydroxypropylcellulose) (HPC)
  T/C: 108 % of control

## Cc1ccc(C2C=CC(C#N)=CN2Cc2ccccc2)cc1 (centres undefined)
[6]
  T/C: 99 % of control
[7]
  T/C: 104 % of control
[8]
  T/C: 101 % of control

## COc1ccc(NC(=O)/N=C2\CN(C(=O)c3c(F)cccc3F)C(=O)N2c2ccc(OC)cc2)cc1
dose: 60.0 mg/kg/injection, schedule: Q01DX005 (ip), vehicle: saline with Tween-80
  T/C: 87 % of control
dose: 120.0 mg/kg/injection, schedule: Q01DX005 (ip), vehicle: saline with Tween-80
  T/C: 89 % of control
dose: 240.0 mg/kg/injection, schedule: Q01DX005 (ip), vehicle: saline with Tween-80
  T/C: 103 % of control

## O=C(CC1(Cl)C(F)(F)C(F)(F)C1(F)F)c1ccccc1
dose: 6.25 mg/kg/injection, schedule: Q04DX003 (ip), vehicle: saline
  T/C: 100 % of control
dose: 12.5 mg/kg/injection, schedule: Q04DX003 (ip), vehicle: saline
  T/C: 100 % of control
dose: 25.0 mg/kg/injection, schedule: Q04DX003 (ip), vehicle: saline
  T/C: 100 % of control

## CCOC(=O)COC(=O)C1C(C(N)=O)N(CC(=O)OCC)CCN1CC(=O)OCC (centres undefined)
[9]
  T/C: 101 % of control
[10]
  T/C: 99 % of control
[11]
  T/C: 103 % of control

## Cc1ccc(S(=O)(=O)/N=S(/C)c2ccccc2)cc1 (centres undefined)
[1]
  T/C: 110 % of control
[2]
  T/C: 100 % of control
dose: 400.0 mg/kg/injection, schedule: Q04DX003 (ip), vehicle: saline with Tween-80
  T/C: 120 % of control

## CC(=O)C[n+]1ccccc1Oc1ccccc1
dose: 25.0 mg/kg/injection, schedule: Q01DX005 (ip), vehicle: saline
  T/C: 93 % of control
dose: 50.0 mg/kg/injection, schedule: Q01DX005 (ip), vehicle: saline
  T/C: 96 % of control

## CCC1C(OC)=CC(CC)(C(=O)OC)C=C1OC (centres undefined)
[9]
  T/C: 100 % of control
[10]
  T/C: 107 % of control
[11]
  T/C: 107 % of control

## CC1(C)C[C@@]2(F)C(=O)NC(=O)N[C@@H]12
dose: 12.5 mg/kg/injection, schedule: Q01DX001 (ip), vehicle: Klucel (hydroxypropylcellulose) (HPC)
  T/C: 103 % of control
dose: 25.0 mg/kg/injection, schedule: Q01DX001 (ip), vehicle: Klucel (hydroxypropylcellulose) (HPC)
  T/C: 106 % of control
dose: 50.0 mg/kg/injection, schedule: Q01DX001 (ip), vehicle: Klucel (hydroxypropylcellulose) (HPC)
  T/C: 99 % of control

## COC(=O)C1=C(N2CCCC2)C2c3ccccc3SC12C(=O)OC (centres undefined)
dose: 60.0 mg/kg/injection, schedule: Q01DX005 (ip), vehicle: Klucel (hydroxypropylcellulose) (HPC)
  T/C: 104 % of control
dose: 120.0 mg/kg/injection, schedule: Q01DX005 (ip), vehicle: Klucel (hydroxypropylcellulose) (HPC)
  T/C: 98 % of control
dose: 240.0 mg/kg/injection, schedule: Q01DX005 (ip), vehicle: Klucel (hydroxypropylcellulose) (HPC)
  T/C: 94 % of control

## CC(=O)N1CN2CN(C1)CN(C(C)=O)C2
dose: 100.0 mg/kg/injection, schedule: Q01DX001 (ip), vehicle: saline
  T/C: 105 % of control
dose: 200.0 mg/kg/injection, schedule: Q01DX001 (ip), vehicle: saline
  T/C: 104 % of control
dose: 400.0 mg/kg/injection, schedule: Q01DX001 (ip), vehicle: saline
  T/C: 107 % of control

## C[n+]1ccc(CCNC2CCC(N=NC3CCC([N+](=O)[O-])CC3)CC2)cc1 (centres undefined)
[3]
  T/C: 105 % of control and 92 % of control
[4]
  T/C: 108 % of control
[5]
  T/C: 102 % of control and 118 % of control

## CCCCCCCCn1c(Cl)c(C(=O)O)c2ccccc21
dose: 100.0 mg/kg/injection, schedule: Q01DX001 (ip), vehicle: Klucel (hydroxypropylcellulose) (HPC)
  T/C: 95 % of control
dose: 200.0 mg/kg/injection, schedule: Q01DX001 (ip), vehicle: Klucel (hydroxypropylcellulose) (HPC)
  T/C: 86 % of control
dose: 400.0 mg/kg/injection, schedule: Q01DX001 (ip), vehicle: Klucel (hydroxypropylcellulose) (HPC)
  T/C: 86 % of control

Reference: PubChem BioAssay AID330 (DTP/NCI, 2004)
